Values quoted from earlier work as cited in article PMC8679620, “Receptor-Targeted Photodynamic Therapy of Glucagon-Like Peptide 1 Receptor–Positive Lesions” (Journal of Nuclear Medicine, 2020).

Details: at 689 nm; ref [12],[17]
Source text: Exendin-4-IRDye700DX was supplied by piCHEM. IRDye700DX NHS ester was obtained from LI-COR Biosciences.

SMILES: C[Si](C)(CCC[N+](CCCS(=O)(=O)[O-])(CCCS(=O)(=O)[O-])CCCS(=O)(=O)[O-])O[Si]1(O[Si](C)(C)CCC[N+](CCCS(=O)(=O)[O-])(CCCS(=O)(=O)[O-])CCCS(=O)(=O)[O-])n2c3c4ccccc4c2N=C2N=C(N=c4c5ccccc5c(n41)=NC1=NC(=N3)c3ccccc31)c1cccc(OCCCOC(=O)NCCCCCC(=O)ON3C(=O)CCC3=O)c12.[Na+].[Na+].[Na+].[Na+] (stereo not shown) [IRDye700DX]
- extinction coefficient: 210000 M⁻¹ cm⁻¹
